Legend:
[1] = tested on: UGTs 1A1, 1A3, 1A6, 1A7, 1A8, 1A9, 1A10, 2B4, 2B7, 2B11, 2B15 or 2B17; test: Screening of OLZ glucuronidation activity by homogenates of HEK293 cells over-expressing other wild-type UGTs; format: in vitro ADME, human; details: up to 250 μg of UGT-over-expressing cell homogenate
UGT1A4 = biological target: T1, UGT1A4 (Homo sapiens, UniProt P22310); test: in vitro; details: homogenates from UGT1A4-over-expressing cells, pH 7.5, probe OLZ (olanzapine), 25 μM
T1 sequence (P22310 29-534): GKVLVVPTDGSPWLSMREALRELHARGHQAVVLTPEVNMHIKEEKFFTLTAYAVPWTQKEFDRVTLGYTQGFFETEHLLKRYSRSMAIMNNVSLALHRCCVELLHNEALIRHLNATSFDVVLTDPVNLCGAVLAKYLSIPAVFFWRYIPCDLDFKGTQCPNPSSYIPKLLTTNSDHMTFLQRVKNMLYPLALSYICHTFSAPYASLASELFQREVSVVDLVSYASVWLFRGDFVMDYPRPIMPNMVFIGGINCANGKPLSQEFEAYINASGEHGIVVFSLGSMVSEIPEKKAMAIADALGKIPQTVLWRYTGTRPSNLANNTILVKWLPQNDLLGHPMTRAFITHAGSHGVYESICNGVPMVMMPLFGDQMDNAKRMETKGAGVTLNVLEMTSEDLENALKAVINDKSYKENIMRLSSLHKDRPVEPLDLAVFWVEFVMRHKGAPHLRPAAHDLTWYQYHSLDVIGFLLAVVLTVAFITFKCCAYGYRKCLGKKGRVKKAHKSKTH
Procedure: Glucuronidation assays were performed in 50 mmol/L Tris buffer (pH 7.5), 10 mmol/L MgCl2, 4 mmol/L UDP-glucuronic acid (UDPGA), and 7.8 μmol/L to 4 mmol/L of substrate at 37° C. in a water bath for 2 h. […] Reactions were terminated by the addition of the same volume of cold acetonitrile as the initial reaction volume. Reactions were centrifuged at 13,000 g for 10 min at 4° C. and supernatants were collected. […] Elution consisted of a gradient elution starting with 87.5% buffer B (100% acetonitrile) and 17.5% buffer A [5 mmol/L ammonium acetate (pH 6.0)] for 5 min, a linear gradient to 90% buffer B over 1 min and held for 2 min, then a linear gradient back to initial conditions and held for 2 min for a total run time of 10 min. The flow rate was maintained at 0.5 mL/min. […] 1, 1997; 25(0:81-93, and by mass spectrometry as described herein. As controls, glucuronidation assays were performed using HLM as a positive control for glucuronidation activity and untransfected HEK293 cell homogenate protein as a negative control for glucuronidation activity. Four independent experiments were performed for kinetic analysis of UGT-over-expressing cell homogenates, with all assays within each experiment performed in duplicate; two independent experiments were performed for rate determination assays and three for kinetic analysis for HLM specimens.

[2] = tested on: UGT1A4 (overall OLZ glucuronidation); test: in vitro; details: human, pH 7.5

inhibition at 2 h, 2000 μM (UGT1A4) [%] | inhibition at 2 h, 2000 μM [2] [%] | Compound | glucuronidation activity against OLZ in UGT screening [1]
– | – | Cc1cc2c(s1)Nc1ccccc1N=C2N1CCN(C)CC1 [OLZ, Olanzapine] | None of the other UGTs screened
41 | 12 ± 3.4 | Nc1nnc(-c2cccc(Cl)c2Cl)c(N)n1 [LTG, lamotrigine] | –
